Reference: article PMC9020739, “Identification of a two-component regulatory system involved in antimicrobial peptide resistance in Streptococcus pneumoniae” (PLoS Pathogens, 2022)
Where a SMILES comes first, the peptide text is derived from it. Bridges are numbered along the chain shown (N, C = ends). [ ]: non-standard residue; d: D form. The star is where a group is joined. Ileψ(thiazoline)Cys = CC[C@H](C)[C@H](N)C1=N[C@H](C(=O)*)CS1; dOrn = NCCC[C@@H](N)C(=O)O

What was measured:
Type in all cases: cell-based, Streptococcus pneumoniae
[1] = tested on: BceAB protein levels in R6 WT strain; assay: Quantitative proteomics (TMT labeling, LC-MS/MS); details: R6 wild-type, bacitracin 1 μg/ml for 45 min versus untreated
Description: (§1) In experiments 1 and 2, we analyzed the R6 WT and R6 Δtcs01 strains treated or not with 1 μg/mL of bacitracin. In experiment 3, we analyzed the R800-Δhk01-PcomX-rr01-hk01 strain treated with either 1 μg/mL or 32 μg/mL of bacitracin.
(§2) Strains were grown in 50 mL of THY medium at 37°C without agitation and in anaerobic conditions until the absorbance reaches approximatively 0.3. After the addition of bacitracin (final concentrations of 1 or 32 μg/mL), the bacterial cultures were incubated for 45 min at 37°C with a slight mechanical agitation (60 rpm). Then, the cell density was adjusted to an OD600nm = 0.8 in 10 mL. After centrifugation at 4,000 x g for 10 min at 4°C, the pellets were resuspended with 1 mL of cold Tris-HCl 50 mM pH 7.5 and centrifuged at 10,000 x g, for 5 min at 4°C. The pellets were harvested and treated in the same conditions than previously. The contents were transferred into Eppendorf low-binding tubes. After a last centrifugation at 10,000 x g for 5 min at 4°C, the bacterial pellets were stored at -80°C. […] The proteins were quantified by using BCA assay kit (Thermo Scientific) before sending the samples to mass spectrometry analysis.
(§3) To compare the proteins abundance between the different conditions/samples, we used a multiplexed quantitation method after labeling by isobaric Tandem Mass Tags (TMT). […]
(§4) We simultaneously compared 6 TMT samples within the same experiment. In the experiment 1 we analyzed one sixplex containing R6 WT, R6 WT+ Bacitracin 1, R6 WT+ Bacitracin 2, R6 ΔTCS, R6 ΔTCS+ Bacitracin 1, R6 ΔTCS+ Bacitracin 2 labeled with reporter ions 126, 127, 128, 129, 130 and 131, respectively; and experiment 2 is a second sixplex containing R6 WT1, R6 WT2, R6 WT+ Bacitracin, R6 ΔTCS1, R6 ΔTCS2, R6 ΔTCS+ Bacitracin labeled with reporter ions 126, 127, 128, 129, 130 and 131, respectively. The calculated ratios shown in Figs 5 and S5 are: experiment 1: R6 WT+ Bacitracin (1/2)/R6WT and R6 WT+ Bacitracin (1/2)/ R6 ΔTCS+ Bacitracin (1/2); experiment 2: R6 WT+ Bacitracin /R6WT (1/2) and R6 WT+ Bacitracin/ R6 ΔTCS+ Bacitracin. […]

[2] = tested on: protein levels in R6 Δtcs01 strain; assay: Quantitative proteomics (TMT labeling, LC-MS/MS)
Description: as §1, §2, §3, §4

[3] = tested on: S. pneumoniae R6 mutant strains (ΔbceAB, Δtcs01, ΔbceAB/tcs01); assay: Growth of wild-type and mutant strains in microplates with bacitracin; details: Todd-Hewitt broth, various bacitracin concentrations, 4 biological replicates (Fig 1)
Description: The MIC of various antimicrobial peptides for R6, R800 and D39 strains was determined by classical 2-fold broth dilution method. Cells were first grown in Todd-Hewitt medium at 37°C without agitation and in anaerobic conditions until the absorbance reaches approximatively 0.3. Complementation strains were grown with 0.5 μM ComS inducer until the appropriate OD. Cells were then diluted at final OD600nm = 0.002 in 96-well plates containing 300 μL of Todd-Hewitt medium (and 2 μM ComS inducer for the complementation strains) with serial dilutions of antimicrobial peptides. Pneumococcal growth was monitored by a microplate reader (TECAN) at 37°C without agitation. The absorbance was followed at 600 nm every 15 min for 15 h.

Compound: CC[C@H](C)[C@H](N)C1=N[C@H](C(=O)N[C@@H](CC(C)C)C(=O)N[C@H](CCC(=O)O)C(=O)N[C@H](C(=O)N[C@H]2CCCCNC(=O)[C@H](CC(N)=O)NC(=O)[C@@H](CC(=O)O)NC(=O)[C@H](Cc3cnc[nH]3)NC(=O)[C@@H](Cc3ccccc3)NC(=O)[C@H]([C@@H](C)CC)NC(=O)[C@@H](CCCN)NC2=O)[C@@H](C)CC)CS1 [bacitracin] ({Ileψ(thiazoline)Cys}-L[dE]IK[dOrn]I[dF]H[dD]N; lactam 4-C (inferred); N-terminus assumed)
- Accumulation of BceAB upon treatment [1]: 7 ± 3 fold
- BceAB protein levels upon treatment ([2]; R6 Δtcs01, bacitracin 1 μg/ml for 45 min versus untreated, average): 0.99 ± 0.09 fold
- Abundance of LiaS upon treatment ([2]; R6 Δtcs01 treated with bacitracin, TMT proteomics): increased by two-fold
- Growth of the mutant strains [3]: severely impaired
